Data: patent US20150342921A1, “METFORMIN-ORLISTAT COMPOSITIONS” (LANDSTEINER SCIENTIFIC S.A. DE C.V., priority 2012, published 2015)

Legend:
clinical = details: both, human, in vivo
Excerpt: All subjects agreed to participate in the study and were considered as healthy, all as determined through detection tests including medical history, physical examination, electrocardiogram, hematic biometry, blood chemistry with 24 elements, detection of drug abuse, general urine exam as well as hepatitis B and HIV tests. Vital signs were considered normal with blood pressure of 50-90/84-120 mmHg, heart rate of 50-100 pulses/min, breathing rate was 14-25 breaths/min, and tympanic temperature of 36-37.8° C. […] Smokers, pregnant women and subjects with a clinical history of hypersensitivity to drugs, foods or environmental substances were not included.
The prospective and longitudinal study was performed in a crossed and balanced, randomized design with two sequences, two periods, a single dose, single blind with a wash out period of 1 week between treatments. […] After dosing, serial blood samples were collected and vital signs monitored during a period of 24 hours. Blood samples of 10 mL each were extracted at 0, 0.25, 0.5, 0.75, 1, 1.25, 1.5, 1.75, 2, 3, 4, 6, 8, 12 and 24 hours after administration. Vital signs were measured at 0, 1, 2, 3, 4, 6, 8, 12 and 24 hours after dosing. Subjects were held for 36 hours and monitored for safety and adverse effects throughout the study. Volunteers received a diet calculated at 3000 cal/day in each period. […]

[1] = cited from earlier work
[2] = after two treatment periods, 26 volunteers, single dose; 7 in total, all light
Excerpt: All subjects agreed to participate in the study and were considered as healthy, all as determined through detection tests including medical history, physical examination, electrocardiogram, hematic biometry, blood chemistry with 24 elements, detection of drug abuse, general urine exam as well as hepatitis B and HIV tests. […] Smokers, pregnant women and subjects with a clinical history of hypersensitivity to drugs, foods or environmental substances were not included.
The prospective and longitudinal study was performed in a crossed and balanced, randomized design with two sequences, two periods, a single dose, single blind with a wash out period of 1 week between treatments. […] After dosing, serial blood samples were collected and vital signs monitored during a period of 24 hours. […] Vital signs were measured at 0, 1, 2, 3, 4, 6, 8, 12 and 24 hours after dosing. Subjects were held for 36 hours and monitored for safety and adverse effects throughout the study. Volunteers received a diet calculated at 3000 cal/day in each period.

In the case of `CN(C)C(=N)N=C(N)N` [Metformin], the Cmax (clinical; 500 mg) is listed as 1390 ± 440 ng/mL, the Tmax (clinical; po) is listed as 2.41 h and the “Excreted with no changes in the urine” value ([1]; in vivo) is listed as ~90%. The “Number of adverse effects” value [2] was 3.
In the case of `CCCCCCCCCCC[C@@H](C[C@@H]1OC(=O)[C@H]1CCCCCC)OC(=O)[C@H](CC(C)C)NC=O` [Orlistat], the “Dietetic fat excreted in feces” value ([1]; in vivo) is given as “up to 30%”, the Excreted in feces ([1]; in vivo) is given as ~97% and the Oral bioavailability ([1]; metformin when fasting, orlistat administered orally) is given as “below 5%”.
